Experimental findings from ChEMBL document CHEMBL1201862, “PubChem BioAssay data set” (2004) are described below.

Some test systems named below: SK-MEL-28; EKVX; NCI-H226; Malme-3M; HCT-15; UACC-257; MDA-MB-435; KM12; HL-60; TK-10; PC-3; OVCAR-8; RPMI-8226; OVCAR-3; HOP-92; HCC 2998; SN12C; RXF 393; IGROV-1; HT-29.
Holding throughout (assay): NCI tumour cell line growth inhibition, 48 h

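All cell lines were grown in 96-well plates and treated with compound for 48 hours. The concentration for 50% growth inhibition is given as GI50.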 Calls of active or inactive are those of the source. Cut-off read from the data, not from the text of the source: active = GI50 up to about 1.1 µM and inactive = higher.

In the case of `CN(C)CCC(=O)N1C/C(=C/c2ccccc2)C(=O)/C(=C\c2ccccc2)C1`, the GI50 is 1.58 µM (inactive) with SK-MEL-28; 3.78 µM (inactive) in the experiment with EKVX; 5.55 µM (inactive) in the experiment on NCI-H226; 2.16 µM (inactive) with Malme-3M; 1.05 µM with HCT-15; 2.08 µM (inactive) in the experiment on UACC-257. Besides, the GI50 is 1.43 µM (inactive) in the experiment with MDA-MB-435; 0.55 µM (active) with KM12; 0.356 µM (active) in the experiment on HL-60; 8.15 µM (inactive) in the experiment with TK-10; 1.54 µM (inactive) with PC-3; 1.03 µM (active) with OVCAR-8. Moreover, the GI50 in the experiment on RPMI-8226 was 0.134 µM (active); in the experiment on OVCAR-3, 2.59 µM (inactive); in the experiment on HOP-92 it was 7.11 µM (inactive); in the experiment on HCC 2998, 1.06 µM (active); with SN12C it was 1.25 µM (inactive); in the experiment on RXF 393 it was 2.11 µM (inactive). Moreover, the figures for the GI50 in the experiment with IGROV-1 and with HT-29 were 2.59 µM (inactive) and 0.679 µM (active), respectively.

Consider `O=C1CC(c2ccc(Cl)cc2)C2(C(=O)NC(=O)NC2=O)C(c2ccc(Cl)cc2)C1` (stereo not given), for which the GI50 is 18.2 µM (inactive) with SK-MEL-28; 47.4 µM (inactive) with EKVX; 16 µM (inactive) with NCI-H226; 17.1 µM (inactive) in the experiment with Malme-3M; 22.9 µM in the experiment with HCT-15; 30.8 µM (inactive) in the experiment with UACC-257. Moreover, the GI50 in the experiment with MDA-MB-435 was 17.3 µM (inactive); in the experiment with KM12, 36.4 µM (inactive); in the experiment with HL-60, 19.5 µM (inactive); in the experiment with TK-10 it was 54.8 µM (inactive); in the experiment with PC-3, 30.5 µM (inactive); in the experiment with OVCAR-8 it was 27.5 µM (inactive). Also, the GI50 in the experiment on RPMI-8226 is 10.3 µM (inactive); with OVCAR-3, 24.9 µM (inactive); in the experiment on HOP-92 it was 14.7 µM (inactive); in the experiment with HCC 2998 it was 27.9 µM (inactive); with SN12C it was 21.6 µM (inactive); in the experiment on RXF 393, 15 µM (inactive). For the same compound, the GI50 is 18 µM (inactive) in the experiment on IGROV-1 and 23 µM (inactive) in the experiment on HT-29.

As for `N#CC(c1ccccc1)N(CCc1ccccc1)C(=O)Oc1ccccc1` (stereo not given), the GI50 was > 100 µM (inactive) with SK-MEL-28; > 100 µM (inactive) in the experiment with EKVX; 34.1 µM (inactive) in the experiment on NCI-H226; > 100 µM (inactive) in the experiment with Malme-3M; more than 100 µM with HCT-15; > 100 µM (inactive) in the experiment with UACC-257. For the same compound, the GI50 in the experiment with MDA-MB-435, in the experiment on KM12, in the experiment with HL-60, with TK-10, in the experiment on PC-3 and with OVCAR-8 was > 100 µM (inactive) each time. The GI50 with RPMI-8226 is > 100 µM (inactive); in the experiment on OVCAR-3, > 100 µM (inactive); with HOP-92, 29.5 µM (inactive); in the experiment with HCC 2998, > 100 µM (inactive); in the experiment on SN12C, > 100 µM (inactive); with RXF 393, 46.9 µM (inactive). Also, the GI50 in the experiment with IGROV-1 and in the experiment with HT-29 was > 100 µM (inactive) throughout.

On to `N#CC(c1ccnc(Cl)n1)c1nc2ccccc2s1` (stereo not given), for which the GI50 is 10.8 µM (inactive) in the experiment on SK-MEL-28; 20.2 µM (inactive) in the experiment with EKVX; 3.76 µM (inactive) in the experiment with NCI-H226; 2.7 µM (inactive) in the experiment with Malme-3M; 3.44 µM in the experiment on HCT-15; 6.19 µM (inactive) in the experiment with UACC-257. Also, the GI50 in the experiment with MDA-MB-435 was 3.92 µM (inactive); in the experiment on KM12, 4.37 µM (inactive); in the experiment on HL-60, 1.17 µM (inactive); in the experiment with TK-10, 7.33 µM (inactive); in the experiment on PC-3, 3.78 µM (inactive); with OVCAR-8, 3.78 µM (inactive). The GI50 in the experiment with RPMI-8226 was 3.54 µM (inactive); with OVCAR-3, 5.55 µM (inactive); with HOP-92, 2.77 µM (inactive); in the experiment with HCC 2998 it was 25.4 µM (inactive); in the experiment on SN12C, 2.87 µM (inactive); with RXF 393, 4.44 µM (inactive). For the same compound, the GI50 with IGROV-1 is 3.65 µM (inactive); with HT-29, 2.88 µM (inactive).

For `NC1=CN(Cc2ccccc2)C2=N/C(=C\c3ccccc3O)C(=O)N12`, the GI50 was > 100 µM (inactive) in the experiment on SK-MEL-28; 52.1 µM (inactive) in the experiment with EKVX; > 100 µM (inactive) in the experiment with NCI-H226; > 100 µM (inactive) with Malme-3M; more than 100 µM in the experiment with HCT-15; > 100 µM (inactive) in the experiment on UACC-257. Besides, the GI50 with MDA-MB-435, in the experiment on KM12, with HL-60, in the experiment on TK-10, with PC-3 and in the experiment on OVCAR-8 was > 100 µM (inactive) each time. In addition, the GI50 is 75.7 µM (inactive) with RPMI-8226; > 100 µM (inactive) in the experiment on OVCAR-3; > 100 µM (inactive) in the experiment with HOP-92; > 100 µM (inactive) in the experiment with HCC 2998; > 100 µM (inactive) with SN12C; > 100 µM (inactive) with RXF 393. Also, the GI50 in the experiment with IGROV-1 and with HT-29 was > 100 µM (inactive) each time.

On to `COc1ccc(OC)c([N+](=O)[O-])c1-c1nc2sc(C)c(C)n2c1/C=N/N=C(N)N`, for which the GI50 in the experiment on SK-MEL-28 was 54.5 µM (inactive); in the experiment with EKVX it was > 100 µM (inactive); in the experiment on NCI-H226, > 100 µM (inactive); with Malme-3M it was 60.7 µM (inactive); in the experiment on HCT-15 it was more than 100 µM; in the experiment on UACC-257 it was > 100 µM (inactive). Further, the GI50 in the experiment with MDA-MB-435 is 43.1 µM (inactive); in the experiment on KM12, 20.9 µM (inactive); with HL-60, 25.6 µM (inactive); in the experiment with TK-10, > 100 µM (inactive); in the experiment on PC-3, 40.8 µM (inactive); with OVCAR-8, > 100 µM (inactive). Besides, the GI50 in the experiment on RPMI-8226 was 32.4 µM (inactive); in the experiment with OVCAR-3 it was > 100 µM (inactive); in the experiment on HOP-92, 61 µM (inactive); in the experiment on HCC 2998 it was 46.3 µM (inactive); in the experiment with SN12C it was > 100 µM (inactive); in the experiment on RXF 393 it was > 100 µM (inactive). The figures for the GI50 in the experiment on IGROV-1 and in the experiment with HT-29 were 27.3 µM (inactive) and 43.4 µM (inactive), respectively.

`CN(C)[C@@H]1C(O)=C(C(=O)NCNc2nc3[nH]nnc3c(=O)[nH]2)C(=O)[C@@]2(O)C(O)=C3C(=O)c4c(O)cccc4[C@@](C)(O)[C@H]3C[C@@H]12`: the GI50 in the experiment on SK-MEL-28 was 1.33 µM (inactive); with EKVX, 12.4 µM (inactive); in the experiment on NCI-H226 it was 1.73 µM (inactive); in the experiment with Malme-3M, 0.773 µM (active); in the experiment on HCT-15 it was 42.5 µM; with UACC-257, 1.28 µM (inactive). Besides, the GI50 is 0.452 µM (active) in the experiment on MDA-MB-435; 49.8 µM (inactive) in the experiment on KM12; 0.231 µM (active) with HL-60; 2.3 µM (inactive) in the experiment on TK-10; 3.42 µM (inactive) with PC-3; 0.817 µM (active) in the experiment with OVCAR-8. Also, the GI50 in the experiment on RPMI-8226 was 0.272 µM (active); with OVCAR-3, 25.9 µM (inactive); in the experiment on HOP-92, 1.3 µM (inactive); in the experiment on HCC 2998 it was 64 µM (inactive); in the experiment with SN12C it was 0.743 µM (active); in the experiment on RXF 393, 0.518 µM (active). Besides, the GI50 was 15.9 µM (inactive) in the experiment on IGROV-1 and 43.7 µM (inactive) in the experiment with HT-29.

`O=C1CSC(=S)N1/N=C/c1ccc(Cl)c([N+](=O)[O-])c1`: the GI50 is 27.5 µM (inactive) in the experiment with SK-MEL-28; 27.9 µM (inactive) in the experiment on EKVX; 36.4 µM (inactive) in the experiment on NCI-H226; 19.1 µM (inactive) with Malme-3M; 20.2 µM in the experiment with HCT-15; 23.8 µM (inactive) in the experiment with UACC-257. The GI50 with MDA-MB-435 is 20.7 µM (inactive); in the experiment on KM12 it was 34.2 µM (inactive); in the experiment on HL-60 it was 24.2 µM (inactive); in the experiment with TK-10, 53.5 µM (inactive); in the experiment on PC-3, 24.6 µM (inactive); with OVCAR-8, 32.9 µM (inactive). Moreover, the GI50 with RPMI-8226 was 21.5 µM (inactive); with OVCAR-3, 20.1 µM (inactive); with HOP-92, 27.6 µM (inactive); in the experiment on HCC 2998, 11.9 µM (inactive); in the experiment with SN12C, 25.8 µM (inactive); with RXF 393 it was 33.8 µM (inactive). For the same compound, the GI50 in the experiment with IGROV-1 is 36.7 µM (inactive); with HT-29, 39.6 µM (inactive).

As for `O=C(O)CCC(=O)c1ccc2ccc3cccc4ccc1c2c34`, the GI50 is 87.3 µM (inactive) in the experiment on SK-MEL-28; 58.2 µM (inactive) in the experiment on EKVX; 49 µM (inactive) in the experiment on NCI-H226; > 100 µM (inactive) in the experiment with Malme-3M; 38 µM in the experiment on HCT-15; 33 µM (inactive) in the experiment on UACC-257. Moreover, the GI50 with MDA-MB-435 is 98.2 µM (inactive); in the experiment on KM12, 55.2 µM (inactive); in the experiment with HL-60, 23 µM (inactive); in the experiment with TK-10 it was 49.1 µM (inactive); in the experiment with PC-3 it was 67.9 µM (inactive); with OVCAR-8 it was 66.7 µM (inactive). The GI50 in the experiment with RPMI-8226 was 63 µM (inactive); with OVCAR-3 it was 53.7 µM (inactive); in the experiment with HOP-92, > 100 µM (inactive); in the experiment with HCC 2998, 21.4 µM (inactive); with SN12C, 57 µM (inactive); in the experiment with RXF 393, 46.5 µM (inactive). The results for the GI50 in the experiment with IGROV-1 and in the experiment on HT-29 were 70.3 µM (inactive) and 63.8 µM (inactive), respectively.

Take `COc1cc(OC)c(-c2oc3ccccc3c(=O)c2O)c(OC)c1`: the GI50 with SK-MEL-28 was > 22.8 µM (inactive); in the experiment with EKVX, 39.4 µM (inactive); in the experiment on NCI-H226, > 100 µM (inactive); with Malme-3M it was 2.86 µM (inactive); in the experiment with HCT-15, 2.99 µM; in the experiment with UACC-257 it was > 91.6 µM (inactive). Also, the GI50 was 0.889 µM (active) in the experiment on MDA-MB-435; 1.99 µM (inactive) in the experiment on KM12; 2.43 µM (inactive) in the experiment on HL-60; > 100 µM (inactive) with TK-10; 5.69 µM (inactive) with PC-3; 10.4 µM (inactive) in the experiment on OVCAR-8. For the same compound, the GI50 is 4.28 µM (inactive) with RPMI-8226; 2.63 µM (inactive) in the experiment with OVCAR-3; 8.17 µM (inactive) with HOP-92; 0.586 µM (active) in the experiment on HCC 2998; > 100 µM (inactive) with SN12C; 2.43 µM (inactive) in the experiment on RXF 393. Also, the GI50 with IGROV-1 was 4.37 µM (inactive); in the experiment with HT-29, 3.08 µM (inactive).
